{"source": "paper PMC8501640", "about": "“Altered Env conformational dynamics as a mechanism of resistance to peptide-triazole HIV-1 inactivators” (Retrovirology, 2021)", "key": {"[1]": {"target": "HxBc2 gp120 WT monomer (Human immunodeficiency virus type 1 group M subtype B, UniProt P04578)", "test": "Isothermal titration calorimetry, WT gp120", "format": "binding, HIV-1", "conditions": "25 °C", "protocol": "(§1) Heats were obtained at 25 °C by injection of 8 μL of PT (100 μM) into a sample cell of a VP-ITC containing 1.4 mL recombinant HxBc2 gp120 (6–8 μM). Solid lines represent fits to a single site binding model.\n(§2) The resulting heat changes upon injection were integrated over a time range of 240 s, and the obtained values were fit to a standard single site-binding model using Origin® software."}, "[2]": {"target": "HxBc2 gp120 V255I monomer (Human immunodeficiency virus type 1 group M subtype B, UniProt P04578, V255I)", "test": "Isothermal titration calorimetry, V255I gp120", "format": "binding, HIV-1", "protocol": "as §1, §2"}, "[3]": {"target": "HxBc2 gp120 V255I/S143N monomer (Human immunodeficiency virus type 1 group M subtype B, UniProt P04578, S143N/V255I)", "test": "Isothermal titration calorimetry, V255I/S143N gp120", "format": "binding, HIV-1", "conditions": "25 °C", "protocol": "as §1, §2"}, "[4]": {"target": "HIV-1 HxBc2 gp120 WT monomer (Human immunodeficiency virus type 1 group M subtype B, UniProt P04578)", "test": "Surface plasmon resonance, WT gp120", "format": "binding", "protocol": "(§3) SPR experiments were performed on a Biacore 3000 biosensor (Global Cytiva Lifesciences) at 25 °C using PBS-P (10 mM Phosphate, 150 mM NaCl, pH 7.4, 0.005% P-20) as the running buffer. A CM5 sensor chip was docked and derivatized by amine coupling with HIV-1HxBc2 WT and mutant gp120 subunits using freshly prepared 1:1 50 mM NHS (N-hydroxysuccinamide):200 mM EDC (1-ethyl-3-(3-(dimethylamino)propyl) carbodiimide). […] The equilibrium dissociation constant was calculated as KD = k−1/k1.\n(§4) Rate constants k1 and k-1 are defined as they are in the 1:1 binding model, while k2 and k-2 are first order rate constants describing isomerization and de-isomerization, respectively. Equations describing the time course of the interactions can be found in Additional file 1: Method S1. For the fit, it was assumed that the states Env·PT and Env·PT^∗ had the same SPR signal. Rate constants were determined using a least-squares gradient-step algorithm coded in Visual Basic and implemented through Microsoft Excel."}, "[5]": {"target": "HIV-1 HxBc2 gp120 V255I monomer (Human immunodeficiency virus type 1 group M subtype B, UniProt P04578, V255I)", "test": "Surface plasmon resonance, V255I gp120", "format": "binding", "protocol": "as §3, §4"}, "[6]": {"target": "HIV-1 HxBc2 gp120 V255I/S143N monomer (Human immunodeficiency virus type 1 group M subtype B, UniProt P04578, S143N/V255I)", "test": "Surface plasmon resonance, V255I/S143N gp120", "format": "binding", "protocol": "as §3, §4"}, "[7]": {"tested_on": "wild type NL4-3 Env on HEK293T cells", "test": "gp120 shedding analysis by flow cytometry, wild type Env", "format": "cell-based, HIV-1", "conditions": "WT NL4-3 Env on HEK293T cells; 37 °C, 2 h; mAb 35O22 flow cytometry; read-out: EC50 of induced gp120 shedding (intact Env trimers remaining)", "protocol": "(§5) The measurements (mean fluorescence intensity) were obtained by flow cytometry using an anti-Env IgG (mAb 35O22) that recognizes a quaternary epitope at the gp120/gp41 interface.\n(§6) The gp120 shedding assay was performed as described previously. Briefly, three million HEK293T cells per flask were transiently transfected with 4 μg of HIV-1 NL4-3 Env plasmid and transfection reagent FuGENE 6 (Promega). 5 mM EDTA in DPBS was used to detach cells at 24 h and cells were reseeded in 96-well plates with 50,000 cells per well. […] Cells were washed with fresh medium, detached with 5 mM EDTA, and then washed and resuspended in FC buffer (1% BSA and 1 mM EDTA in 10 mM PBS pH 7.4). 2% paraformaldehyde in DPBS was used to fix the cells for 15 min at room temperature. Cells were then washed and resuspended in the FC buffer three times. […] Cell counts and Env staining were assessed in counted cells on a Guava EasyCyte 5HT flow cytometry system (Millipore). Analyzed cells were subjected to forward/side scatter gating based on untreated control populations of identical transfection, and median fluorescence values were obtained using Guava InCyte 3.2 software. Data were analyzed in GraphPad Prism 9 using nonlinear regression fit with dose response-inhibitor equation (4 parameters)."}, "[8]": {"tested_on": "S143N NL4-3 Env on HEK293T cells", "test": "gp120 shedding analysis by flow cytometry, S143N Env", "format": "cell-based, HIV-1", "conditions": "S143N mutant Env trimer; 50-fold higher than the EC50 value for wild type Env", "protocol": "as §5, §6"}, "[9]": {"tested_on": "V255I NL4-3 Env on HEK293T cells", "test": "gp120 shedding analysis by flow cytometry, V255I Env", "format": "cell-based, HIV-1", "protocol": "as §5, §6"}, "[10]": {"tested_on": "V255I/S143N NL4-3 Env on HEK293T cells", "test": "gp120 shedding analysis by flow cytometry, V255I/S143N Env", "format": "cell-based, HIV-1", "protocol": "as §5, §6"}, "[11]": {"tested_on": "CEM-GFP cells", "test": "WST-1 cytotoxicity assay", "format": "cell-based", "conditions": "up to concentrations of 125 μM", "protocol": "The cytotoxicity was determined on CEM-GFP cells via a colorimetric assay to measure the relative proliferation rates of cells in culture. […] After 18 h of incubation, the media containing compounds were discarded and treated with 10% (v/v) WST-1 (a tetrazolium salt) in fresh media for one hour at 37 °C. The cell viability was determined by measuring the absorbance at 450 nm using a Tecan Infinite F50 plate reader.\nFigure S1. […] Data represent means and standard deviations of three independent experiments performed in triplicate."}, "[12]": {"tested_on": "BaL.01 viruses", "set-up": "method as in PMID 24330857, PMID 26331669", "conditions": "ref [16], [21], read-out: EC50 of induced gp120 shedding; cited from earlier work"}}, "note": "*1 amine or outer side, *2 acyl side, *3 side chain or, on linkers, in order; H or OH if unused. Where a SMILES comes first, the peptide text is derived from it. Bridges are numbered along the chain shown (N, C = ends). [ ]: non-standard residue; d: D form. X1 = O=C([C@@H]1CC(n2cc([C]34[CH]5[CH]6[CH]7[CH]3[Fe]6754389%10[CH]4[CH]3[CH]8[CH]9[CH]4%10)nn2)CN1[*:1])[*:2]"}
{"smiles": "CC[C@H](C)[C@@H]1NC(=O)[C@H](CC(N)=O)NC(=O)[C@@H](N)CC(=O)NCCCC[C@@H](C(N)=O)NC(=O)[C@H](Cc2c[nH]c3ccccc23)NC(=O)[C@@H]2CC(n3cc([C]45[CH]6[CH]7[CH]8[CH]4[Fe]786549%10%11[CH]5[CH]4[CH]9[CH]%10[CH]5%11)nn3)CN2C1=O", "note": "(some centres unmarked) [AAR029b] (H-DNI[X1]WK-NH2; lactam 1-6 (inferred))", "values": [{"measurement": "ITC binding stoichiometry n", "setting": "[1]", "value": "1.1 ± 0.04"}, {"measurement": "ITC −TΔS", "setting": "[1]", "value": "4.5 ± 0.90", "unit": "kcal/mol"}, {"measurement": "ITC binding stoichiometry n", "setting": "[2]; V255I gp120 (HxBc2), 25 °C", "value": "1.0 ± 0.01"}, {"measurement": "ITC −TΔS", "setting": "[2]; V255I gp120 (HxBc2), 25 °C", "value": "0.43 ± 0.30", "unit": "kcal/mol"}, {"measurement": "absolute impact of V255I substitution on enthalpy (ΔH) and entropy (TΔS)", "setting": "[2]; mutant vs wild type gp120, ITC", "value": "3.5 to 4.5", "unit": "kcal/mol"}, {"measurement": "ITC binding stoichiometry n", "setting": "[3]", "value": "1.1 ± 0.04"}, {"measurement": "ITC −TΔS", "setting": "[3]", "value": "1.0 ± 0.91", "unit": "kcal/mol"}, {"measurement": "SPR k1", "setting": "[4]; PT association", "value": "11 (M^−1 s^−1) × 10^–5"}, {"measurement": "SPR k-1", "setting": "[4]; PT dissociation", "value": "8.3 (s^−1) × 10^3"}, {"measurement": "SPR k1", "setting": "[5]; V255I gp120, PT association", "value": "5.4 (M^−1 s^−1) × 10^–5"}, {"measurement": "SPR k-1", "setting": "[5]; V255I gp120, PT dissociation", "value": "130 (s^−1) × 10^3"}, {"measurement": "decrease in binding affinity (KD) by the V255I mutation, SPR", "setting": "[5]; V255I vs WT gp120", "value": 31, "unit": "fold"}, {"measurement": "SPR k1", "setting": "[6]; PT association", "value": "3.6 (M^−1 s^−1) × 10^–5"}, {"measurement": "SPR k-1", "setting": "[6]; PT dissociation", "value": "110 (s^−1) × 10^3"}, {"measurement": "EC50", "setting": "[7]", "value": "249 ± 75", "unit": "nM"}, {"measurement": "disruption of Env trimer (shedding) at high concentration", "setting": "[8]", "value": "only minimal disruption"}, {"measurement": "decrease in sensitivity to ligand-induced shedding compared to wild type Env", "setting": "[9]", "value": "greater than tenfold"}, {"measurement": "decrease in sensitivity to ligand-induced shedding compared to wild type Env", "setting": "[10]", "value": "greater than tenfold"}, {"measurement": "cytotoxicity", "setting": "[11]", "value": "minimal"}, {"measurement": "EC50", "setting": "[12]", "value": 315, "unit": "nM"}]}
